Measurements from ChEMBL document CHEMBL4804286, “3-amino-4-(4-(4 (dimethylcarbamoyl) phenyl)-1,4-diazepan-1-yl) thieno [2,3-b] pyridine-2-carboxamide for use in cancer therapy and formulations comprising the same” (2020).
Where “and” joins values, the source holds several entries; their conditions need not be identical. Equal entries are not always repeated. Calls of active or inactive are those of the source. The calls are words filed in the database; no cut-off is given here.

What was measured:
[1] = molecular target: Serine/threonine-protein kinase 16 (Homo sapiens) (UniProt O75716); assay: Inhibition of human STK16 assessed as percent of control at 2000 nM by KINOMEscan assay relative to control; set-up: scale not given: the % may be the effect or the level left
[2] = tested on: Receptor-type tyrosine-protein kinase FLT3 (Homo sapiens), P36888 [N841I]; assay: Inhibition of human FLT3 N841I mutant assessed as percent of control at 2000 nM by KINOMEscan assay relative to control; set-up: scale not given: the % may be the effect or the level left
[3] = molecular target: Cytoplasmic tyrosine-protein kinase BMX (Homo sapiens) (UniProt P51813); assay: Inhibition of human BMX assessed as percent of control at 2000 nM by KINOMEscan assay relative to control; set-up: scale not given: the % may be the effect or the level left
[4] = molecular target: Cyclin-dependent kinase 14 (Homo sapiens) (UniProt O94921); assay: Inhibition of human PFTK1 assessed as percent of control at 2000 nM by KINOMEscan assay relative to control; set-up: scale not given: the % may be the effect or the level left
[5] = molecular target: Maternal embryonic leucine zipper kinase (Homo sapiens) (UniProt Q14680); assay: Inhibition of human MELK assessed as percent of control at 2000 nM by KINOMEscan assay relative to control; set-up: scale not given: the % may be the effect or the level left
[6] = molecular target: Serine/threonine-protein kinase pim-2 (Homo sapiens) (UniProt Q9P1W9); assay: Inhibition of human PIM2 assessed as percent of control at 2000 nM by KINOMEscan assay relative to control; set-up: scale not given: the % may be the effect or the level left
[7] = molecular target: Vascular endothelial growth factor receptor 3 (Homo sapiens) (UniProt P35916); assay: Inhibition of human FLT4 assessed as percent of control at 2000 nM by KINOMEscan assay relative to control; set-up: scale not given: the % may be the effect or the level left
[8] = molecular target: Leucine-rich repeat serine/threonine-protein kinase 2 (Homo sapiens) (UniProt Q5S007); assay: Inhibition of human LRRK2 assessed as percent of control at 2000 nM by KINOMEscan assay relative to control; set-up: scale not given: the % may be the effect or the level left
[9] = molecular target: Interleukin-1 receptor-associated kinase 3 (Homo sapiens) (UniProt Q9Y616); assay: Inhibition of human IRAK3 assessed as percent of control at 2000 nM by KINOMEscan assay relative to control; set-up: scale not given: the % may be the effect or the level left
[10] = molecular target: Tyrosine-protein kinase ABL1 (Homo sapiens) (UniProt P00519); assay: Inhibition of non-phosphorylated human ABL1 assessed as percent of control at 2000 nM by KINOMEscan assay relative to control; set-up: scale not given: the % may be the effect or the level left
[11] = molecular target: Serine/threonine-protein kinase WNK2 (Homo sapiens) (UniProt Q9Y3S1); assay: Inhibition of human WNK2 assessed as percent of control at 2000 nM by KINOMEscan assay relative to control; set-up: scale not given: the % may be the effect or the level left
[12] = molecular target: SRSF protein kinase 1 (Homo sapiens) (UniProt Q96SB4); assay: Inhibition of human SRPK1 assessed as percent of control at 2000 nM by KINOMEscan assay relative to control; set-up: scale not given: the % may be the effect or the level left
[13] = molecular target: MAP kinase-activated protein kinase 2 (Homo sapiens) (UniProt P49137); assay: Inhibition of human MAPKAPK2 assessed as percent of control at 2000 nM by KINOMEscan assay relative to control; set-up: scale not given: the % may be the effect or the level left
[14] = molecular target: Serine/threonine-protein kinase MRCK alpha (Homo sapiens) (UniProt Q5VT25); assay: Inhibition of human MRCKA assessed as percent of control at 2000 nM by KINOMEscan assay relative to control; set-up: scale not given: the % may be the effect or the level left
[15] = molecular target: Transient receptor potential cation channel subfamily M member 6 (Homo sapiens) (UniProt Q9BX84); assay: Inhibition of human TRPM6 assessed as percent of control at 2000 nM by KINOMEscan assay relative to control; set-up: scale not given: the % may be the effect or the level left
Transient receptor potential cation channel subfamily M member 6 (Homo sapiens), sequence (Q9BX84 whole entry): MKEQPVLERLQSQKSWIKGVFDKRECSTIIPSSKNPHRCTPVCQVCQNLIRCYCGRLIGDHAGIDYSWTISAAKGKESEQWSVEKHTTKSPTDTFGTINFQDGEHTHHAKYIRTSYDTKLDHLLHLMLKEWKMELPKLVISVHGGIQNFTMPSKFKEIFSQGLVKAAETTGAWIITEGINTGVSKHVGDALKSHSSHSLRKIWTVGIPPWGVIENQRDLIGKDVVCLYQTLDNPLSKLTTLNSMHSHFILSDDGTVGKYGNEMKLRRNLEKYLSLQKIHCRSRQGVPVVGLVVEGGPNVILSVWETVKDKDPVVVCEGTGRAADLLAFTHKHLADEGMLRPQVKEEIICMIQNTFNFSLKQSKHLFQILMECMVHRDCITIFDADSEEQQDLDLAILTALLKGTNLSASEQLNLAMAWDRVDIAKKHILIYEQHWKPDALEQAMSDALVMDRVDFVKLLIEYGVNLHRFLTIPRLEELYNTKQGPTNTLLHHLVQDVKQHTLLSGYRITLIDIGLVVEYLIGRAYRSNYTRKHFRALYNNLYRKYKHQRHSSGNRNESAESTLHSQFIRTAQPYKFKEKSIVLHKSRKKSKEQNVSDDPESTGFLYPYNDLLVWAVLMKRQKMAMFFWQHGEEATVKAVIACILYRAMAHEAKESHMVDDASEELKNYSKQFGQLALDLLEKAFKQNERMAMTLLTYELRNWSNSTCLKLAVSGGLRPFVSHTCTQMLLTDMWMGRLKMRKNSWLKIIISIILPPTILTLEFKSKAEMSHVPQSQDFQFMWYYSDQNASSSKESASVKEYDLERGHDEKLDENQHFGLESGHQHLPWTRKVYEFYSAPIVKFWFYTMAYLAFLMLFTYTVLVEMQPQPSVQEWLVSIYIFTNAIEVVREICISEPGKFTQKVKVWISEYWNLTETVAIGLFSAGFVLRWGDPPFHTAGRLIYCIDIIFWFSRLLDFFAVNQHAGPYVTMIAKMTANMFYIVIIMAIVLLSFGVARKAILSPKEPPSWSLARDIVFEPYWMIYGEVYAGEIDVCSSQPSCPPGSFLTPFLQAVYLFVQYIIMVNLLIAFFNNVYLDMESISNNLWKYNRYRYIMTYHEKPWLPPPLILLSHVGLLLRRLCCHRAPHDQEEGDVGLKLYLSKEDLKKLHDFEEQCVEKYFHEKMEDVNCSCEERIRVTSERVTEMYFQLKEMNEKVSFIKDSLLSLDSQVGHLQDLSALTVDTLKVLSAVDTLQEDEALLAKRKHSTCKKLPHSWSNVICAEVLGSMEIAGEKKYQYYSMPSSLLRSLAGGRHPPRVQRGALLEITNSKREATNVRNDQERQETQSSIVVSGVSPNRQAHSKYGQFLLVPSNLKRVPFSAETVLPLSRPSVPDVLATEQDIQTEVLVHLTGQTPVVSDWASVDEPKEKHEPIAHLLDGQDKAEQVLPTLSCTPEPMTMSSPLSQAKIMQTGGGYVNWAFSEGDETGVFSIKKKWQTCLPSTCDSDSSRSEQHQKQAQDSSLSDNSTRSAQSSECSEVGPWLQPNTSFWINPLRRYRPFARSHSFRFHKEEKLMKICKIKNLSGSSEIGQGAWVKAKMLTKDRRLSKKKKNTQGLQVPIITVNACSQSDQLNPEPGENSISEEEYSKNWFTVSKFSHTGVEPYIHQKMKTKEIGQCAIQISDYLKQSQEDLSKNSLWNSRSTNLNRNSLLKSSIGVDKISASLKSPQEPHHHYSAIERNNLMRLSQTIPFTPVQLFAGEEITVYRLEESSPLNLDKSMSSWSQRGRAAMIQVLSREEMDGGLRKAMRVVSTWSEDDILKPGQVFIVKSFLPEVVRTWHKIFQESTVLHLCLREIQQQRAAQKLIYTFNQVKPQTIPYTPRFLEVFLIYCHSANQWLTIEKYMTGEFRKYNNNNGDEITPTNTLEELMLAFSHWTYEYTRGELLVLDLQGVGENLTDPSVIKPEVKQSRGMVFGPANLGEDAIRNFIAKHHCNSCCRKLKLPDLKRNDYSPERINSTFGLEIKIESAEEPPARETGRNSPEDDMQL

[16] = molecular target: Phosphatidylinositol 4-phosphate 5-kinase type-1 gamma (Homo sapiens) (UniProt O60331); assay: Inhibition of human PIP5K1C assessed as percent of control at 2000 nM by KINOMEscan assay relative to control; set-up: scale not given: the % may be the effect or the level left
Phosphatidylinositol 4-phosphate 5-kinase type-1 gamma (Homo sapiens), sequence (O60331 whole entry): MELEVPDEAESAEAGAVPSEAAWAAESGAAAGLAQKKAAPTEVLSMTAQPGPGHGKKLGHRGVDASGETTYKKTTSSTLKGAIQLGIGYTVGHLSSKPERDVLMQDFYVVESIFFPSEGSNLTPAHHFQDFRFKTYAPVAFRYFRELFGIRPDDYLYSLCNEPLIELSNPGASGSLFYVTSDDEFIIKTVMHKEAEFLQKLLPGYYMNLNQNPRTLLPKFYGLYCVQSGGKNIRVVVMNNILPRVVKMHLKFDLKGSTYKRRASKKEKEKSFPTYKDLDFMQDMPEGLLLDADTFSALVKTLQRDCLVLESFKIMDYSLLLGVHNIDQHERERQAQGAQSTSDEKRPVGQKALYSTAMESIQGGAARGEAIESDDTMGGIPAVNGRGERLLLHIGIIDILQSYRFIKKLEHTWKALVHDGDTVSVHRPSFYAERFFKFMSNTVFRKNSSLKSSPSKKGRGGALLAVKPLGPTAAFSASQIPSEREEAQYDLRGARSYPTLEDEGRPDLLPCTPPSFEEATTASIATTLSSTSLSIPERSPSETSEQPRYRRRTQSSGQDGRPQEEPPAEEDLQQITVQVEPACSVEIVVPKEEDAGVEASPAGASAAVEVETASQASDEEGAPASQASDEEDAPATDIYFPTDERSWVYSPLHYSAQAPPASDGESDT

[17] = molecular target: Dual specificity mitogen-activated protein kinase kinase 3 (Homo sapiens) (UniProt P46734); assay: Inhibition of human MEK3 assessed as percent of control at 2000 nM by KINOMEscan assay relative to control; set-up: scale not given: the % may be the effect or the level left
Dual specificity mitogen-activated protein kinase kinase 3 (Homo sapiens), sequence (P46734 whole entry): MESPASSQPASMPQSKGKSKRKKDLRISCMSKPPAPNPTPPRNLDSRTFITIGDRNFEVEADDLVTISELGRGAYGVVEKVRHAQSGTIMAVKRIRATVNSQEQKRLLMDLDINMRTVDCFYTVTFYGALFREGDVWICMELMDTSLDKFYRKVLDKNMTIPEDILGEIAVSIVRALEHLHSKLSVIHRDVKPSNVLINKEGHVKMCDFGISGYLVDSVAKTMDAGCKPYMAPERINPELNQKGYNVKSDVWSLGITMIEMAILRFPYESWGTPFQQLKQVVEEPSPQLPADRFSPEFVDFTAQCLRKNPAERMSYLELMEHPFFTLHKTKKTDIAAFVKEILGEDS

[18] = molecular target: Serine/threonine-protein kinase PAK 5 (Homo sapiens) (UniProt Q9P286); assay: Inhibition of human PAK7 assessed as percent of control at 2000 nM by KINOMEscan assay relative to control; set-up: scale not given: the % may be the effect or the level left
[19] = molecular target: Tyrosine-protein kinase Tec (Homo sapiens) (UniProt P42680); assay: Inhibition of human TEC assessed as percent of control at 2000 nM by KINOMEscan assay relative to control; set-up: scale not given: the % may be the effect or the level left
[20] = molecular target: cGMP-dependent protein kinase 1 (Homo sapiens) (UniProt Q13976); assay: Inhibition of human PRKG1 assessed as percent of control at 2000 nM by KINOMEscan assay relative to control; set-up: scale not given: the % may be the effect or the level left
[21] = molecular target: Ribosomal protein S6 kinase alpha-5 (Homo sapiens) (UniProt O75582); assay: Inhibition of human C-terminal RPS6KA5 kinase domain 2 assessed as percent of control at 2000 nM by KINOMEscan assay relative to control; set-up: scale not given: the % may be the effect or the level left
Myc-CaP [22] = assay: Antiproliferative activity against murine castration-resistant Myc-CaP cells at 1 uM assessed as growth inhibition in presence of 5 uM enzalutamide relative to control; assay type: functional; settings: Mus musculus
Myc-CaP [23] = assay: Antitumor activity against murine castration-resistant Myc-CaP cells xenografted in male FVB mouse assessed as suppression of tumor volume; assay type: functional
[24] = molecular target: Death-associated protein kinase 1 (Homo sapiens) (UniProt P53355); assay: Inhibition of human DAPK1 assessed as percent of control at 2000 nM by KINOMEscan assay relative to control; set-up: scale not given: the % may be the effect or the level left
[25] = molecular target: Mitotic checkpoint serine/threonine-protein kinase BUB1 (Homo sapiens) (UniProt O43683); assay: Inhibition of human BUB1 assessed as percent of control at 2000 nM by KINOMEscan assay relative to control; set-up: scale not given: the % may be the effect or the level left
[26] = tested on: Mast/stem cell growth factor receptor Kit (Homo sapiens), P10721 [V559D,V654A]; assay: Inhibition of human KIT V559D/V654A double mutant assessed as percent of control at 2000 nM by KINOMEscan assay relative to control; set-up: scale not given: the % may be the effect or the level left
Mast/stem cell growth factor receptor Kit (Homo sapiens), P10721 [V559D,V654A], sequence (P10721 whole entry V559D/V654A): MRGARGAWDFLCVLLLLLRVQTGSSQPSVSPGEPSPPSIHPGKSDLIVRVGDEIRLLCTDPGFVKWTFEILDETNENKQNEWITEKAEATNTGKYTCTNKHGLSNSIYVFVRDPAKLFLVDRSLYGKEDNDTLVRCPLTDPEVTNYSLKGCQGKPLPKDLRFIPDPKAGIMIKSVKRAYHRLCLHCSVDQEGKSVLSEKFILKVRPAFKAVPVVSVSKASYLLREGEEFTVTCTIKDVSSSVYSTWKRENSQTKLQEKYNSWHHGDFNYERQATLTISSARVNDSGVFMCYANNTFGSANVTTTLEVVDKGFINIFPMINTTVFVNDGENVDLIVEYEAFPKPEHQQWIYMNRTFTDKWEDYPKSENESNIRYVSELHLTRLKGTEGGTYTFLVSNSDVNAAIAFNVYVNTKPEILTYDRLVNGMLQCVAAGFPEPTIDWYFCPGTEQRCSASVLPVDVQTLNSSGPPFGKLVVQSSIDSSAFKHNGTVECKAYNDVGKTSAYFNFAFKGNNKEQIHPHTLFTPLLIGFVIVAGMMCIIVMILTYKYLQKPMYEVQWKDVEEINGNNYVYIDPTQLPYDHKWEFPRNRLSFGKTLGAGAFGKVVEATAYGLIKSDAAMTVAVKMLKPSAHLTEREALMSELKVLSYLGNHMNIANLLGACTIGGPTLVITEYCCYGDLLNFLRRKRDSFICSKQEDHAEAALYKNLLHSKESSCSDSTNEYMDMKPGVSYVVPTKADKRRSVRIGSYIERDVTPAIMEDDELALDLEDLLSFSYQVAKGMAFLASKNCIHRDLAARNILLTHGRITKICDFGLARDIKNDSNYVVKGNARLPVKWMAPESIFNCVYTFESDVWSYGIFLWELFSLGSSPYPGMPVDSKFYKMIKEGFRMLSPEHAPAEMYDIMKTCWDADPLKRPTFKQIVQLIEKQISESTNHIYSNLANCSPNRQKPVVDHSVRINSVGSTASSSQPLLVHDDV

Myc-CaP [27] = assay: Inhibition of colony formation in murine castration-resistant Myc-CaP cells at 1 uM by clonogenic assay; assay type: functional; settings: Mus musculus
[28] = molecular target: Serine/threonine-protein kinase 32A (Homo sapiens) (UniProt Q8WU08); assay: Inhibition of human YANK1 assessed as percent of control at 2000 nM by KINOMEscan assay relative to control; set-up: scale not given: the % may be the effect or the level left
[29] = molecular target: Serine/threonine-protein kinase ULK1 (Homo sapiens) (UniProt O75385); assay: Inhibition of human ULK1 assessed as percent of control at 2000 nM by KINOMEscan assay relative to control; set-up: scale not given: the % may be the effect or the level left
[30] = molecular target: Serine/threonine-protein kinase Nek9 (Homo sapiens) (UniProt Q8TD19); assay: Inhibition of human NEK9 assessed as percent of control at 2000 nM by KINOMEscan assay relative to control; set-up: scale not given: the % may be the effect or the level left
Serine/threonine-protein kinase Nek9 (Homo sapiens), sequence (Q8TD19 whole entry): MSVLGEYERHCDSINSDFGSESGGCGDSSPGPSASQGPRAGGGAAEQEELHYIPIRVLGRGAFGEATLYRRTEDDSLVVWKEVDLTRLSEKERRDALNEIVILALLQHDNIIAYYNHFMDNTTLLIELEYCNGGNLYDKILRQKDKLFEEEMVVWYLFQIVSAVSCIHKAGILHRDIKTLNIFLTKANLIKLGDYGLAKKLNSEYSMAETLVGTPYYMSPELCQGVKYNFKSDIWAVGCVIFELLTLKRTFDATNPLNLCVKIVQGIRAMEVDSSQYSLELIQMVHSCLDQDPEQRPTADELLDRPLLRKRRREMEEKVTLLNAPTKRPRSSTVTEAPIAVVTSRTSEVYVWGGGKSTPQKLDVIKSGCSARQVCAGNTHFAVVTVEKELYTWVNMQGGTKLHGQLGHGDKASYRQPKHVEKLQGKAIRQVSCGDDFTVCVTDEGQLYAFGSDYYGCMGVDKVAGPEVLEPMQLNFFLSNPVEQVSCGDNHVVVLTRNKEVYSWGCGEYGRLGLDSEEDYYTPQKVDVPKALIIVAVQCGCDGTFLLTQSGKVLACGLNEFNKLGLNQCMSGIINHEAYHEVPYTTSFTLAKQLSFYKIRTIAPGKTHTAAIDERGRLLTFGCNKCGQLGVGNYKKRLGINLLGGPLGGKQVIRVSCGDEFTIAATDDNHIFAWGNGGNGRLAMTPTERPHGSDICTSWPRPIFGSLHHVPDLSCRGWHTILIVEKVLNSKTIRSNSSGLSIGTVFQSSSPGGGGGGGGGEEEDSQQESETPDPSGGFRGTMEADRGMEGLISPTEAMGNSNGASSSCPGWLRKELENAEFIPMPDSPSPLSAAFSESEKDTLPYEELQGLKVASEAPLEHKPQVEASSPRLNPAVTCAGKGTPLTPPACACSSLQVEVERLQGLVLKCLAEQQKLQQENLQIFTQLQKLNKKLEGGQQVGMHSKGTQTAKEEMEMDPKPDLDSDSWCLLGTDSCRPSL

[31] = molecular target: Tyrosine-protein kinase TXK (Homo sapiens) (UniProt P42681); assay: Inhibition of human TXK assessed as percent of control at 2000 nM by KINOMEscan assay relative to control; set-up: scale not given: the % may be the effect or the level left

SMILES: CN(C)C(=O)c1ccc(N2CCCN(c3ccnc4sc(C(N)=O)c(N)c34)CC2)cc1
- Activity [1]: 80% and 87%
- Activity [2]: 90% and 86%
- Activity [3]: 93% and 100%
- Activity [4]: 96% and 100%
- Activity [5]: 75% and 84%
- Activity [6]: 85% and 89%
- Activity [7]: 92% and 98%
- Activity [8]: 94% and 70%
- Activity [9]: 93% and 89%
- Activity [10]: 95% and 78%
- Activity [11]: 96% and 94%
- Activity [12]: 100% and 97%
- Activity [13]: 91% and 99%
- Activity [14]: 94% and 100%
- Activity [15]: 100% and 80%
- Activity [16]: 64%
- Activity ([16]; INHIBITOR): 25%
- Activity [17]: 68%
- Activity ([17]; INHIBITOR): 47%
- Activity [18]: 100% and 80%
- Activity [19]: 91% and 81%
- Activity [20]: 88% and 100%
- Activity [21]: 95% and 100%
- Activity (Myc-CaP [22]): Active
- Activity (Myc-CaP [23]): Active
- Activity [24]: 92% and 88%
- Activity [25]: 88% and 80%
- Activity [26]: 100%
- inhibition (Myc-CaP [27]): Active
- Activity [28]: 89% and 97%
- Activity [29]: 96% and 72%
- Activity [30]: 100% and 89%
- Activity [31]: 93% and 100%
